Results taken from patent EP0093915A1, “Novel beta-lactam derivatives” (GRUPPO LEPETIT S.P.A., priority 1982, dated 1983).

Columns and labels:
Experiment in all cases: MIC in microtiter, antibacterial spectrum in vitro
Format in all cases: cell-based
[1] = test system: E. coli SKF 12140; details: Penassay broth (Difco), overnight incubation at 37°C
Experimental: (§1) MICS (minimum inhibitory concentrations) were determined in "microtiter" using Brain-heart infusion broth (Difco) or Penassay broth (Difco) for gram-positive or gram-negative bacteria, respectively. S. pyogenes and S. pneu- moniae were tested in Todd-Merwitt broth (Difco).
(§2) The inoculum was overnight cultures diluted to obtain 10^3 or […] respectively in the case of gram-positive or gram-negative strains.
(§3) The MIC was defined as the lowest concentration of antibiotic which […] visible growth after overnight incubation at 37 °C.

[2] = test system: S. pneumoniae UC 41; details: Todd-Merwitt broth (Difco), overnight incubation at 37°C
Experimental: as §1, §2, §3

[3] = test system: S. pyogenes c 203 ISM; details: Todd-Merwitt broth (Difco), overnight incubation at 37°C
Experimental: as §1, §2, §3

[4] = test system: E cloacae P 99 1321 E; details: Penassay broth (Difco), overnight incubation at 37°C
Experimental: as §1, §2, §3

[5] = test system: P. vulgaris ATCC 881; details: Penassay broth (Difco), overnight incubation at 37°C
Experimental: as §1, §2, §3

[6] = test system: S. aureus ATCC 6538; details: Brain-heart infusion broth (Difco), overnight incubation at 37°C
Experimental: as §1, §2, §3

[7] = test system: E. cloacae 45; details: Penassay broth (Difco), overnight incubation at 37°C
Experimental: as §1, §2, §3

[8] = test system: K. aerogenes 1522 E; details: Penassay broth (Difco), overnight incubation at 37°C
Experimental: as §1, §2, §3

[9] = test system: S. aureus Smith; details: Brain-heart infusion broth (Difco), overnight incubation at 37°C
Experimental: as §1, §2, §3

[10] = test system: S. pyogenes c 203 SKF 13400; details: Todd-Merwitt broth (Difco), overnight incubation at 37°C
Experimental: as §1, §2, §3

Trans-(±)-6-ethyl-7-oxo-2-[[2-(2-pyridylamino)ethyl]-thio]-1-azabicyclo[3.2.0]hept-2-en-2-carboxylic acid S-oxide, (4-nitrophenyl)methyl ester [Example 22]
MIC [1]: 25 µg/mL
MIC [2]: 0.05 µg/mL
MIC [3]: 0.1 µg/mL
MIC [4]: 25 µg/mL
MIC [5]: 3.12 µg/mL
MIC [6]: 0.1 µg/mL
MIC [7]: 25 µg/mL
MIC [8]: 12.5 µg/mL

Trans-(±)-6-ethyl-7-oxo-2-[[2-[(2-thiazolyl)amino]-ethyl]thio]-1-azabicyclo]3.2.0]hept-2-en-2-carboxylic acid potassium salt [Example 24]
MIC [1]: 12.5 µg/mL
MIC [9]: 0.4 µg/mL
MIC [2]: 0.1 µg/mL
MIC [4]: 12.5 µg/mL
MIC [5]: 6.2 µg/mL
MIC [6]: 0.1 µg/mL
MIC [7]: 6.2 µg/mL
MIC [10]: 0.1 µg/mL
MIC [8]: 6.2 µg/mL

Trans-(±)-6-ethyl-7-oxo-2-[[2-(2-(2-pyrimidinyl)ethy]-thio]-1-azabicyclo[3.2.0]hept-2-en-2-carboxylic acid S-oxide, (4-nitrophenyl)methyl ester [Example 23]
MIC [1]: 6.2 µg/mL
MIC [9]: 0.1 µg/mL
MIC [2]: 0.05 µg/mL
MIC [4]: 3.1 µg/mL
MIC [5]: 3.1 µg/mL
MIC [6]: 0.1 µg/mL
MIC [7]: 3.1 µg/mL
MIC [10]: 0.05 µg/mL
MIC [8]: 3.1 µg/mL
